The values below come from PubChem BioAssay (NCI).

As usually defined, the GI50 is the concentration giving 50% growth inhibition. A word on the TGI: it is the concentration giving total growth inhibition. Lower therefore signals greater sensitivity of the cells.

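Step 1: Grow cells in 96-well plates. Step 2: Expose to compound for 48 hours at 5 concentrations. Step 3: Interpolate endpoints linearly; if unreached, use highest concentration. The concentration for 50% growth inhibition is given as GI50. TGI is the concentration that stops growth completely.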 Where only a bound is given, the exact number is not on record here.

Among the test systems are SK-MEL-2 melanoma; K-562 leukemia; NCI/ADR-RES ovarian; MOLT-4 leukemia; SN12C renal; CCRF-CEM leukemia; HCC-2998 colon; RPMI-8226 leukemia; LOX IMVI melanoma; HCT-15 colon.
Experiment in all cases: DTP human tumour cell line panel, 48 h

In the case of `O=S(=O)(Nc1cc(Sc2cccc3cccnc23)c(O)c2ccccc12)c1ccccc1`, the GI50 with SK-MEL-2 melanoma is 2.48 µM; in the assay with K-562 leukemia, 0.929 µM; with NCI/ADR-RES ovarian, 0.931 µM; in the assay with MOLT-4 leukemia, 0.546 µM; in the assay with SN12C renal, 0.798 µM; in the assay with CCRF-CEM leukemia, 0.426 µM. For the same compound, the GI50 with HCC-2998 colon was 4.77 µM; with RPMI-8226 leukemia it was 2.38 µM; in the assay with LOX IMVI melanoma it was 0.522 µM; in the assay on HCT-15 colon, 0.464 µM. The TGI stood at 13.4 µM with SK-MEL-2 melanoma; 16.5 µM in the assay on K-562 leukemia; 11 µM in the assay with NCI/ADR-RES ovarian; 5.53 µM in the assay with MOLT-4 leukemia; 3.6 µM in the assay on SN12C renal; 16 µM with CCRF-CEM leukemia. For the same compound, the TGI in the assay on HCC-2998 colon was 19.1 µM; in the assay on RPMI-8226 leukemia it was 7.9 µM; in the assay with LOX IMVI melanoma, 10.1 µM; with HCT-15 colon, 2.5 µM.
On to `CCn1c(SCc2ccc(C)cc2)nnc1-c1nn(-c2ccc(Cl)cc2Cl)c(-c2ccc(Cl)cc2)c1C`, for which the GI50 with SK-MEL-2 melanoma was 3.01 µM; with K-562 leukemia, 0.836 µM; with NCI/ADR-RES ovarian, 3.54 µM; in the assay on MOLT-4 leukemia, 2.15 µM; in the assay on SN12C renal it was 2.31 µM; in the assay on CCRF-CEM leukemia it was 2.51 µM. The GI50 in the assay with HCC-2998 colon is 2.35 µM; in the assay on RPMI-8226 leukemia it was 0.464 µM; with LOX IMVI melanoma, 2.72 µM; in the assay with HCT-15 colon, 2.7 µM. For the same compound, the TGI came out at 12.5 µM in the assay on SK-MEL-2 melanoma; 10.4 µM in the assay on K-562 leukemia; 14.6 µM in the assay with NCI/ADR-RES ovarian; 11 µM with MOLT-4 leukemia; 10.8 µM with SN12C renal; 13.5 µM in the assay with CCRF-CEM leukemia. In addition, the TGI in the assay with HCC-2998 colon stood at 13.2 µM; in the assay on RPMI-8226 leukemia, 3.05 µM; in the assay with LOX IMVI melanoma it was 10.7 µM; in the assay on HCT-15 colon it was 11.4 µM.
With `C/C(N=NC(=S)N(C)C)=C1\C=CC=CN1O`, the TGI with SK-MEL-2 melanoma was over 56.2 µM; in the assay with K-562 leukemia, over 100 µM; with NCI/ADR-RES ovarian it was 21.1 µM; in the assay on MOLT-4 leukemia it was over 56.4 µM; in the assay on SN12C renal, over 100 µM; with CCRF-CEM leukemia, over 63.5 µM. Besides, the total growth inhibition concentration (TGI) is over 44.9 µM in the assay with HCC-2998 colon, over 70.4 µM in the assay with RPMI-8226 leukemia, over 100 µM in the assay with LOX IMVI melanoma and over 84.1 µM in the assay on HCT-15 colon.
Turning to `Br[C](Br)(Br)[Hg][c]1ccccc1`, the GI50 with SK-MEL-2 melanoma was 17.8 µM; with K-562 leukemia it was 0.275 µM; in the assay with NCI/ADR-RES ovarian, 18.3 µM; in the assay on MOLT-4 leukemia, 3.66 µM; in the assay on SN12C renal, 16.2 µM; in the assay on CCRF-CEM leukemia, 1.49 µM. Further, the GI50 with HCC-2998 colon is 14.4 µM; with RPMI-8226 leukemia, 18.9 µM; in the assay with LOX IMVI melanoma, 9.71 µM; in the assay with HCT-15 colon it was 9.39 µM. For the same compound, the TGI with SK-MEL-2 melanoma turned out to be 32 µM; in the assay with K-562 leukemia it was 5.02 µM; in the assay with NCI/ADR-RES ovarian, 42.2 µM; with MOLT-4 leukemia, 35.2 µM; with SN12C renal it was 29.7 µM; in the assay with CCRF-CEM leukemia, 9.13 µM. In addition, the TGI in the assay with HCC-2998 colon worked out at 27.7 µM; in the assay on RPMI-8226 leukemia it was 70.6 µM; with LOX IMVI melanoma it was 23.2 µM; with HCT-15 colon, 24 µM.
In the case of `CC/C=C\C[C@H]1C/C=C2/C(=O)C=C[C@@H]2C/C=C\CCCC(=O)O1`, the GI50 with SK-MEL-2 melanoma is 1.86 µM; with K-562 leukemia it was 0.353 µM; in the assay with NCI/ADR-RES ovarian, 0.405 µM; in the assay with MOLT-4 leukemia it was 0.604 µM; in the assay on SN12C renal it was 0.986 µM; in the assay on CCRF-CEM leukemia, 0.339 µM. Moreover, the GI50 in the assay with HCC-2998 colon is 1.76 µM; with RPMI-8226 leukemia, 0.352 µM; in the assay with LOX IMVI melanoma, 0.273 µM; in the assay on HCT-15 colon it was 0.423 µM. The TGI was 4.87 µM with SK-MEL-2 melanoma; over 54.5 µM in the assay on K-562 leukemia; 7.32 µM with NCI/ADR-RES ovarian; 5.21 µM in the assay on MOLT-4 leukemia; 4.34 µM in the assay with SN12C renal; 5.04 µM in the assay on CCRF-CEM leukemia. Moreover, the TGI in the assay on HCC-2998 colon came to 3.22 µM; with RPMI-8226 leukemia, 4.03 µM; in the assay on LOX IMVI melanoma, 0.865 µM; in the assay on HCT-15 colon, 2.86 µM.
As for `CN(C)C(=O)[C@H](O)[C@H](Cc1ccccc1)NC(=O)c1cc2cc(Cl)ccc2[nH]1`, the GI50 was 17.2 µM in the assay on SK-MEL-2 melanoma; 25.8 µM with K-562 leukemia; 22.7 µM in the assay on NCI/ADR-RES ovarian; 21 µM in the assay on MOLT-4 leukemia; 23.5 µM in the assay with SN12C renal; 30.2 µM in the assay with CCRF-CEM leukemia. In addition, the GI50 is 16.3 µM in the assay on HCC-2998 colon, 19.5 µM in the assay on RPMI-8226 leukemia, 17 µM with LOX IMVI melanoma and 22.4 µM in the assay on HCT-15 colon. In addition, the TGI in the assay with SK-MEL-2 melanoma was 37.2 µM; with K-562 leukemia it was over 100 µM; in the assay with NCI/ADR-RES ovarian, over 100 µM; with MOLT-4 leukemia, 79.4 µM; in the assay on SN12C renal, over 95.1 µM; in the assay with CCRF-CEM leukemia, over 100 µM. Besides, the TGI came out at 38.1 µM in the assay with HCC-2998 colon, 66.6 µM with RPMI-8226 leukemia, 38.5 µM in the assay on LOX IMVI melanoma and 81.5 µM in the assay on HCT-15 colon.
For `COc1ccc(CCN2COc3c([C@@H](C)CCC=C(C)C)ccc(C)c3C2)cc1OC`, the GI50 was 1.88 µM in the assay on SK-MEL-2 melanoma; 3.7 µM in the assay on K-562 leukemia; 2.96 µM in the assay with NCI/ADR-RES ovarian; 3.69 µM in the assay with MOLT-4 leukemia; 3.27 µM with SN12C renal; 3.49 µM in the assay with CCRF-CEM leukemia. For the same compound, the GI50 with HCC-2998 colon was 1.59 µM; with RPMI-8226 leukemia it was 2.09 µM; with LOX IMVI melanoma, 1.77 µM; in the assay with HCT-15 colon, 2.84 µM. Also, the TGI was 3.82 µM in the assay on SK-MEL-2 melanoma; 93.5 µM with K-562 leukemia; 9.51 µM with NCI/ADR-RES ovarian; over 100 µM with MOLT-4 leukemia; 13.5 µM in the assay with SN12C renal; 21.1 µM in the assay on CCRF-CEM leukemia. Further, the TGI in the assay on HCC-2998 colon came to 2.96 µM; in the assay with RPMI-8226 leukemia, 7.67 µM; in the assay on LOX IMVI melanoma, 3.75 µM; in the assay on HCT-15 colon, 10.4 µM.
